“And” between values parts separate entries of the source, which are not always exact repeats. Equal values may be shown once.
Test system: L1210 leukemia
Assay: L1210 screening (L1210 leukemia tumor model, survival)
Format: in vivo, Female CDF, mice
Conditions: L1210, dose 10.00 mg/kg day one; 25% ILS or greater indicates activity, maximum 200%
Experimental: (§1) The platinum-diphosphonate complexes were tested for antitumor activity using both Sarcoma 180 ascites and L1210 leukemia tumor models (see Tables 3 and 4).
Female CDF, mice (16-22g) were injected with a suspension of 1x10^6 tumor cells in 0.5 mL of […] on day zero. On day one, the mice received the test compound in 0.5 mL of the chosen medium (usually water). Six mice were used for each test dose and six doses were normally given. Normal controls (six mice) received tumor on day zero and 0.5 mL of test medium on day one. Positive controls (six mice) were given tumor on day zero and 8 mg/kg cisplatin in 0.5 mL of […] on say one. All compound doses were adjusted for the actual average weight of the mice involved. Testing was terminated at 3 time the normal control mean life span. The percent increase in lifespan (%ILS) was calculated as follows: %ILS = [(mean life span (test)/mean life span (control))-1] X 100% A 25% ILS or greater indicates activity in this screen. The maximum possible ILS is 200%. The positive control must have an ILS > 25% for the test to be considered valid.

Row | Compound | %ILS [%]
1 | Na[Pt2(R,R-dach)2(PDP)] [Example 3] | 1

Same assay, conditions: L1210, dose 20.00 mg/kg day one; 25% ILS or greater indicates activity, maximum 200%

Row | Compound | %ILS [%]
2 | Na[Pt2(R,R-dach)2(PDP)] [Example 3] | 28

Same assay, conditions: L1210, dose 40.00 mg/kg day one; 25% ILS or greater indicates activity, maximum 200%

Row | Compound | %ILS [%]
3 | Na[Pt2(R,R-dach)2(PDP)] [Example 3] | 28

Same assay, conditions: L1210, dose 80.00 mg/kg day one; 25% ILS or greater indicates activity, maximum 200%

Row | Compound | %ILS [%]
4 | Na[Pt2(R,R-dach)2(PDP)] [Example 3] | 55

Same assay, conditions: L1210, dose 160.00 mg/kg day one; 25% ILS or greater indicates activity, maximum 200%

Row | Compound | %ILS [%]
5 | Na[Pt2(R,R-dach)2(PDP)] [Example 3] | 104

Same assay, conditions: L1210, dose 320.00 mg/kg day one; 25% ILS or greater indicates activity, maximum 200%

Row | Compound | %ILS [%]
6 | Na[Pt2(R,R-dach)2(PDP)] [Example 3] | 111

Same assay, conditions: L1210, survivors/mice, dose 10.00 mg/kg

Row | Compound | SURV
7 | Na[Pt2(R,R-dach)2(PDP)] [Example 3] | 0/ 6

Same assay, conditions: L1210, survivors/mice, dose 20.00 mg/kg

Row | Compound | SURV
8 | Na[Pt2(R,R-dach)2(PDP)] [Example 3] | 0/ 6

Same assay, conditions: L1210, survivors/mice, dose 40.00 mg/kg

Row | Compound | SURV
9 | Na[Pt2(R,R-dach)2(PDP)] [Example 3] | 0/ 6

Same assay, conditions: L1210, survivors/mice, dose 80.00 mg/kg

Row | Compound | SURV
10 | Na[Pt2(R,R-dach)2(PDP)] [Example 3] | 0/ 6

Same assay, conditions: L1210, survivors/mice, dose 160.00 mg/kg

Row | Compound | SURV
11 | Na[Pt2(R,R-dach)2(PDP)] [Example 3] | 2/ 6

Same assay, conditions: L1210, survivors/mice, dose 320.00 mg/kg

Row | Compound | SURV
12 | Na[Pt2(R,R-dach)2(PDP)] [Example 3] | 2/ 6

Same assay, conditions: L1210, survivors/mice, positive control of the respective experiment, 8 mg/kg cisplatin; 8 mg/kg

Row | Compound | POS CONT SURV
13 | N.N.[Cl][Pt][Cl] [cisplatin, reference compound] | 3/ 6 and 4/ 6 and 0/ 6 and 1/ 6

Test system: L1210 murine tumor system
Assay: not given
Conditions: Nepras, Masters Thesis 1979; cited from earlier work

Row | Compound | antitumor activity
14 | CC(O)(P(=O)([O-])[O-])P(=O)([O-])[O-].NCCN.NCCN.[Pt+2].[Pt+2] [[Pt2(en)2(HEDP)]] | inactive
15 | NCCN.NCCN.O=P([O-])([O-])CP(=O)([O-])[O-].[Pt+2].[Pt+2] [[Pt2(en)2(MDP)]] | inactive

Test system: Sarcoma 180 ascites
Assay: S180a screening (Sarcoma 180 ascites tumor model, survival)
Format: in vivo, Female CFW mice
Conditions: positive control of the respective experiment, 8 mg/kg cisplatin in saline, 8 mg/kg
Experimental: as §1
Female CFW mice (18-25g) were implanted with 2 x 10^6 cells ip on day zero. Compounds were administered in 0.5 mL water ip on say one. Groups of 6 mice were used for each test dose as well as controls as defined above. The test was run for twice the MST of the control group, with survivors counted as dying on that day. An ILS of > 50% indicates activity. The tumor line was maintained through weekly transfer of 4 x 10^6 cells in CFW mice.

Row | Compound | POS CONT %ILS
16 | N.N.[Cl][Pt][Cl] [cisplatin, reference compound] | 58% and 92% and 82% and 63%

Same assay, conditions: survivors/mice, positive control of the respective experiment, 8 mg/kg cisplatin, 8 mg/kg

Row | Compound | POS CONT SURV
17 | N.N.[Cl][Pt][Cl] [cisplatin, reference compound] | 2/ 5 and 4/ 6 and 3/ 6 and 1/ 6
